According to ChEMBL document CHEMBL5726383, “Heteroaryls and uses thereof” (2017):
pIC50: −log10 of the molar value.

Target: Phosphatidylinositol 3-kinase catalytic subunit type 3 (Homo sapiens, UniProt Q8NEB9)
Test: VPS34 Enzyme Assays: 100 nL compounds in DMSO are added to wells of a 384 well microtitre plate (Greiner 780076). At room temperature: 5 ul VPS34 reaction buffer (Invitrogen Assay Buffer Q (diluted 1 in 5 with nanopure water) plus 2 mM DTT and 2 mM MnCl2) containing ATP (20 uM, Promega) and 200 uM PI-PS substrate (Invitrogen PV5122) is added followed immediately by 5 ul VPS34 reaction buffer (as above) containing VPS34 (5 nM, Millennium Protein Sciences Group) and the mixture is incubated with shaking at room temperature for 1 hour. Then 5 ul VPS34 stop-detect mix (as per Invitrogen Adapta Assay kit (PV5009) instructions (contains kinase quench buffer, TR-FRET buffer, Adapta Eu anti-ADP antibody and Alexa Fluor 647 ADP tracer)) is added to quench the reaction. The plates are then incubated for 30 minutes at room temperature with shaking and then read on a BMG PheraStar Plus reader.

Phosphatidylinositol 3-kinase catalytic subunit type 3, sequence (Q8NEB9 whole entry): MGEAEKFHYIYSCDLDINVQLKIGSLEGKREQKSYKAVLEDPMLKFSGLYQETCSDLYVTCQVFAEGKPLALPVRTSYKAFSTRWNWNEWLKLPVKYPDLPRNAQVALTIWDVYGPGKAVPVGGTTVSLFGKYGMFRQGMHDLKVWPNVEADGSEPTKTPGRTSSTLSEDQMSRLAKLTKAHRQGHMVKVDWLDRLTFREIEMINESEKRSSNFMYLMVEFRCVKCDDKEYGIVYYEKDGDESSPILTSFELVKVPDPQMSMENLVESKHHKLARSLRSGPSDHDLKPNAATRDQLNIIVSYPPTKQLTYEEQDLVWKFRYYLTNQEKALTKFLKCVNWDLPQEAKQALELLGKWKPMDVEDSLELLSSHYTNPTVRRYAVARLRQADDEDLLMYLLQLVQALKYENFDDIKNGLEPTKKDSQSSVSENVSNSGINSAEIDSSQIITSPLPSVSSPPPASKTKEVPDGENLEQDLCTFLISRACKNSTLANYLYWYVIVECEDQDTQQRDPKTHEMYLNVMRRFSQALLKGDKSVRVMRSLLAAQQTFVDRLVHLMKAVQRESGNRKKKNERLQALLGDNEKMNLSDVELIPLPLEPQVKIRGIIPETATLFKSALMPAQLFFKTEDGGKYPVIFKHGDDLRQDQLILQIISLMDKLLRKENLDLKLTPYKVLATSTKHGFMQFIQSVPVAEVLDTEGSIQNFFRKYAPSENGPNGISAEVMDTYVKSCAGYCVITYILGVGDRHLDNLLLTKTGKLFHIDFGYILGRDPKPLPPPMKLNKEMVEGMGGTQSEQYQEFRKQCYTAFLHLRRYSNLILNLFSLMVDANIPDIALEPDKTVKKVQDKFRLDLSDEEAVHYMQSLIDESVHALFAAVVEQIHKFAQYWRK

CC(=O)Nc1cc(-c2cnc(C)c(NS(=O)(=O)c3ccc(C)cc3Cl)c2)ccn1
pIC50: > 8.00
